Read-outs that look alike come from different tables or passages of the source.
What was measured:
HDAC isoforms = assay: HDAC inhibition profiled over several HDAC isoforms (experimental); type: biochemical, human; details: range of pIC50 over the profiled HDAC isoforms
HDAC2 = HDAC2 (Homo sapiens, UniProt Q92769); details: cited from earlier work
HDAC6 = target: T1, HDAC6 (Homo sapiens, UniProt Q9UBN7); details: cited from earlier work; for pIC50exp: HDAC6 experimental activity assigned; for pIC50: training set composition
T1 sequence (Q9UBN7 1-1215): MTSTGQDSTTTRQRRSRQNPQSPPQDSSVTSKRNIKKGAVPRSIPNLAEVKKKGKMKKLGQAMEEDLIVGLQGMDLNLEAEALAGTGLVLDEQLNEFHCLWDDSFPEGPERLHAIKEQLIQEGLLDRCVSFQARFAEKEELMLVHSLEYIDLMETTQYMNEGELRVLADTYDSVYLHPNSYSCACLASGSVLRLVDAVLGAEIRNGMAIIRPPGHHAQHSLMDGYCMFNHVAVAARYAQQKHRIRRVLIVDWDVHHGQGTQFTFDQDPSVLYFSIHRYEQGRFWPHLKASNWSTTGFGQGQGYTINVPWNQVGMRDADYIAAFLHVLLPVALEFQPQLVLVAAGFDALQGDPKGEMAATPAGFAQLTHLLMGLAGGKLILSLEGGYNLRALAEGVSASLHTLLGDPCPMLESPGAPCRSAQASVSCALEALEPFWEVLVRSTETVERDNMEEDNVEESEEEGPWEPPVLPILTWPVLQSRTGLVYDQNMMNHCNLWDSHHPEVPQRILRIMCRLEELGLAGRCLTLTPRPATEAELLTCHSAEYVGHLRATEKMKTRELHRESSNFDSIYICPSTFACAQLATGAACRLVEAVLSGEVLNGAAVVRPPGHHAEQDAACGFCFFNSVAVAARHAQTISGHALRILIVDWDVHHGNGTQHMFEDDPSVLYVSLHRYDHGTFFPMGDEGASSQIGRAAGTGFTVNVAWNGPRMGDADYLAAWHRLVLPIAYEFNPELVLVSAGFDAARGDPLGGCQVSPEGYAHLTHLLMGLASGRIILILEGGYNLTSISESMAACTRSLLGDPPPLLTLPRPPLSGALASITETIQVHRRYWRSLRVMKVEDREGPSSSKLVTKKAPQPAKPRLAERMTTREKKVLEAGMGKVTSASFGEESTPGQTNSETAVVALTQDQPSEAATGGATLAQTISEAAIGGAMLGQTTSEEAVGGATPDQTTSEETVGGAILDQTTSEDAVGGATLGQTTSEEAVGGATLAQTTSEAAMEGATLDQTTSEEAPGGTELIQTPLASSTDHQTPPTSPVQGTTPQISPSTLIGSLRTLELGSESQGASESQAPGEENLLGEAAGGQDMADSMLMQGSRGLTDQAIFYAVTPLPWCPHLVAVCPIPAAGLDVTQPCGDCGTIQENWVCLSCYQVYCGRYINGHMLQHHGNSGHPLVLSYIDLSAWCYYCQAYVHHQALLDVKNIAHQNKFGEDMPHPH

HDAC2, sequence (Q92769 whole entry): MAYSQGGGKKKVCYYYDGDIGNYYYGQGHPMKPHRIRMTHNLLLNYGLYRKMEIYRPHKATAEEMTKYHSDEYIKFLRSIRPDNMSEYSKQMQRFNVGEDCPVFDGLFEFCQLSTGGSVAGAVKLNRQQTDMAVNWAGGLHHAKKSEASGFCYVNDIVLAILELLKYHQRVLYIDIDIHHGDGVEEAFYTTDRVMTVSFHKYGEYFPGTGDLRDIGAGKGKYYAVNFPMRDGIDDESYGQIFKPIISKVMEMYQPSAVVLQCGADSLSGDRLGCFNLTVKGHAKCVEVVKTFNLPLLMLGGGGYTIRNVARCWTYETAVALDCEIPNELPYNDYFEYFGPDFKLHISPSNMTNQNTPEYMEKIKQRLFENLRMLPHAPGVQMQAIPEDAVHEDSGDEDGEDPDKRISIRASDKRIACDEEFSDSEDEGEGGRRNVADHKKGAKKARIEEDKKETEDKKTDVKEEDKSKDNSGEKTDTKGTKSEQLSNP

In the case of `CCCC(=O)O` [NABUT, Butyrate], the “Bioactivity range (ΔpIC50) DpIC50” value (HDAC isoforms) is given as 1.95, the pIC50 (HDAC2; training set composition) is given as 4.54 and the IC50 (HDAC2; training set, read-out: HDACs inhibitory activities IC50) is given as 28.9 µM. For the same compound, the pIC50exp (HDAC6; HDAC6-1 (histone catalytic domain)) was 3, the pIC50 (HDAC6; HDAC6-1) was 3.00 and the pIC50exp (HDAC6; HDAC6-2 (tubulin catalytic domain)) was 3. The pIC50 (HDAC6; HDAC6-2) was 3.00 and the IC50 (HDAC6; HDAC6, training set, read-out: HDACs inhibitory activities IC50) was 1000 µM.
